What all share (type): in vivo
Data set [1] in a line: Pharmacokinetic test and evaluation in rats. Particulars: rat, po; male SD rats, gavage 2 mg/kg, plasma, n = 4, mean. How it is done:
Pharmacokinetic Test and Evaluation in Rats
After male SD rats weighing about 220 g were fasted overnight, the rats were gavaged with 2 mg/kg of a solution of the compound of the present invention [CMC/TW80 as a carrier]. Blood was collected 0.5, 1.0, 2.0, 4.0, 6.0, 8.0, 12 and 24 h after the administration of the compound of the present invention, respectively, and the concentration of the compound of the present invention in plasma was determined by LC/MS/MS.

Data set [2] can be described thus: Pharmacokinetic test and evaluation in mice. Particulars: mouse, po; male ICR mice, gavage 2 mg/kg, plasma, n = 4, mean. How it is done:
Pharmacokinetic Test and Evaluation in Mice
After male ICR mice weighing about 20-30 g were fasted overnight, the mice were gavaged with 2 mg/kg of a solution of the compound of the present invention [CMC/TW80 as a carrier]. Blood was collected 0.5, 1.0, 2.0, 4.0, 6.0, 8.0, 12 and 24 h after the administration of the compound of the present invention, respectively, and the concentration of the compound of the present invention in plasma was determined by LC/MS/MS.

A short description of data set [3]: Pharmacokinetic test and evaluation in beagle dogs. Particulars: dog, po; male beagle dogs, gavage 2 mg/kg, plasma, n = 4, mean. As for the experimental part:
Pharmacokinetic Test and Evaluation in Beagle Dogs
After male beagle dogs weighing about 6-7 Kg were fasted overnight, the beagle dogs were gavaged with 2 mg/kg of a solution of the compound of the present invention [CMC/TW80 as a carrier]. Blood was collected 0.5, 1.0, 2.0, 4.0, 6.0, 8.0, 12 and 24 h after the administration of the compound of the present invention, respectively, and the concentration of the compound of the present invention in plasma was determined by LC/MS/MS.

Data set [4] deals with mouse colon cancer cells CT26.WT. Kind of data set: Pharmacodynamic test of anti-tumor activity, subcutaneous transplantation cancer model CT26.WT. Particulars: CT26.WT subcutaneous in nude mice; for TV (mm^3) (Tumor Volume) Day 0: Day 0 (baseline at grouping), 30 mg/Kg daily gavage; for % TGI (Tumor Growth Inhibition) / TV (mm^3) (Tumor Volume) Day 17: Day 17, 30 mg/Kg daily gavage. How it is done: Pharmacodynamic Test and Evaluation of Anti-Tumor Activity
1. Subcutaneous Transplantation Cancer Model CT26.WT
5×10^5/100 uL of mouse colon cancer cells CT26.WT were subcutaneously inoculated into the right back of nude mice. The mice were monitored daily for health condition, and the measurement was started when tumors grew to be palpable. The tumor volume was calculated by adopting the following formula: 0.5×L×W^2, wherein L and W represent tumor length and width, respectively. When the tumor grew to about 50 mm^3, the mice were randomly grouped. The mice were gavaged daily with a solution of the compound at a corresponding dose (30 mg/Kg) [CMC/TW80 as a carrier], and at the same time, the general state of the mice was monitored. After the administration was started, the mice were weighed twice in the first week, and the tumor volume was measured twice; from the second week, the mice were weighed three times a week, and the tumor volume was measured three times.

Structures are written as SMILES.

In data set [1], `[2H]C([2H])([2H])n1cc(-n2nc(-c3ccc(Cl)cc3)cc(C(=O)N[C@@H](C)CO)c2=O)cn1` [Example 2, (S)-6-(4-chlorophenyl)-N-(1-hydroxypropan-2-yl)-2-(1-(methyl-d3)-1H-pyrazole-4-yl)-3-oxo-2,3-dihydropyridazine-4-carboxamide] displayed an AUC(0-t) of 990 ng·h/mL and a Cmax of 146 ng/mL. For the same compound, in data set [2], the AUC(0-t) stood at 850 ng·h/mL and the highest level (Cmax) was 241 ng/mL.

In data set [1], `[2H]C([2H])(O)[C@H](C)NC(=O)c1cc(-c2ccc(Cl)cc2)nn(-c2cnn(C([2H])([2H])[2H])c2)c1=O` [Example 8, (S)-6-(4-chlorophenyl)-N-(1-hydroxypropan-2-yl-1,1-d2)-2-(1-(methyl-d3)-1H-pyrazole-4-yl)-3-oxo-2,3-dihydropyridazine-4-carboxamide] gave an AUC(0-t) of 1390 ng·h/mL and a Cmax of 230 ng/mL. Also, in data set [2], the AUC(0-t) came out at 2620 ng·h/mL and the Cmax is 351 ng/mL. In data set [3], this compound returned an AUC(0-t) of 1880 ng·h/mL and a Cmax of 294 ng/mL. In addition, in data set [4], the “TV (mm^3) (Tumor Volume) Day 0” value stood at 55.68 mm^3, the “% TGI (Tumor Growth Inhibition)” value is listed as 50.5% and the “TV (mm^3) (Tumor Volume) Day 17” value is on record as 1117.93 mm^3.

In data set [1], `C[C@@H](CO)NC(=O)c1cc(-c2ccc(Cl)cc2)nn(-c2cnn(C)c2)c1=O` [BAY-2416964, reference compound] came in with an AUC(0-t) of 624 ng·h/mL and a Cmax of 99.5 ng/mL. In data set [2], this compound came in with an AUC(0-t) of 1490 ng·h/mL and a Cmax of 348 ng/mL. In data set [3], this compound had an AUC(0-t) of 995 ng·h/mL and a Cmax of 211 ng/mL. In data set [4], the “TV (mm^3) (Tumor Volume) Day 0” value was found to be 55.81 mm^3, the “% TGI (Tumor Growth Inhibition)” value amounted to 24.7% and the “TV (mm^3) (Tumor Volume) Day 17” value amounted to 1670.91 mm^3.

In data set [1], `[2H]C([2H])(O)[C@H](C)NC(=O)c1cc(-c2ccc(Cl)cc2)nn(-c2cnn(C)c2)c1=O` [Example 7, (S)-6-(4-chlorophenyl)-N-(1-hydroxypropan-2-yl-1,1-d2)-2-(1-methyl-1H-pyrazole-4-yl)-3-oxo-2,3-dihydropyridazine-4-carboxamide] showed an AUC(0-t) of 736 ng·h/mL and a Cmax of 96.6 ng/mL. In data set [2], this compound registered an AUC(0-t) of 2460 ng·h/mL and a Cmax of 351 ng/mL.

The record behind these values is patent US20240002362A1, “DEUTERATED 2-ARYLHETEROCYCLE-3-OXO-2,3- DIHYDROPYRIDAZINE-4-CARBOXAMIDE INHIBITOR AND PREPARATION METHOD THEREFOR AND APPLICATION THEREOF” (Shanghai Zelgen Pharma. Tech Co., Ltd., priority 2020, published 2024).
